Among the data in ChEMBL document CHEMBL3853333, “Synthesis of novel arylaminoquinazolinylurea derivatives and their antiproliferative activities against bladder cancer cell line” (2016) are GI50 values, retold here.

For orientation: GI50 means the concentration that inhibits growth by half. Lower therefore signals more potent growth inhibition.

SMILES strings stand for the structures.

The assay in a line: Antiproliferative activity against human RT112 cells after 72 hrs by MTT assay. The class given is functional. To be noted: RT-112, 72 h.
For the compound `CCOC(=O)c1ccc(NC(=O)Nc2cccc3c(Nc4cc(OC)cc(OC)c4)ncnc23)cc1`, the GI50 was found to be 317 nM.
`COc1cc(Nc2ncnc3c(NC(=O)Nc4cccc(C)c4C)cccc23)cc(OC)c1` had a GI50 of 5910 nM.
In turn, `COc1cc(Nc2ncnc3c(NC(=O)Nc4cc(F)cc(F)c4)cccc23)cc(OC)c1` yielded a GI50 of 2630 nM.
Compound `COc1cc(Nc2ncnc3c(NC(=O)Nc4ccc(C(F)(F)F)cc4[N+](=O)[O-])cccc23)cc(OC)c1` yielded a GI50 above 20000 nM.
In the case of `COc1cc(Nc2ncnc3c(NC(=O)Nc4cccc(Cc5ccccc5)c4)cccc23)cc(OC)c1`, the GI50 came to 1740 nM.
For `COc1cc(Nc2ncnc3c(NC(=O)Nc4ccc(F)cc4C(F)(F)F)cccc23)cc(OC)c1`, the GI50 came to 2970 nM.
As for `COc1cc(Nc2ncnc3c(NC(=O)c4cccc(N5CCN(C)CC5)c4)cccc23)cc(OC)c1`, the GI50 was above 20000 nM.
As for `COc1cc(Nc2ncnc3c(NC(=O)Nc4ccc(Cl)cc4Cl)cccc23)cc(OC)c1`, growth was halved (GI50) at 3060 nM.
`COc1cc(Nc2ncnc3c(NC(=O)Nc4ccc([N+](=O)[O-])cc4)cccc23)cc(OC)c1` had a GI50 above 20000 nM.
The compound `COc1cc(Nc2ncnc3c(NC(=O)Nc4ccccc4Cl)cccc23)cc(OC)c1` displayed a GI50 of 356 nM.
For `COc1cc(Nc2ncnc3c(NC(=O)c4ccc(N5CCN(C)CC5)cc4)cccc23)cc(OC)c1` the value was 14200 nM; for `COc1cc(Nc2ncnc3c(NC(=O)Nc4cc(Cl)cc(Cl)c4)cccc23)cc(OC)c1`, 30.2 nM; for `COc1cc(Nc2ncnc3c(NC(=O)Nc4ccc(Cl)c(C(F)(F)F)c4)cccc23)cc(OC)c1`, above 20000 nM.
For `COc1cc(Nc2ncnc3c(NC(=O)Nc4ccc5c(c4)OCCO5)cccc23)cc(OC)c1`, the GI50 was determined as 2750 nM. This counts as single-digit micromolar.
In turn, `COc1cc(Nc2ncnc3c(NC(=O)c4cc(=O)c5ccccc5o4)cccc23)cc(OC)c1` yielded a GI50 above 20000 nM.
Under `COc1cc(Nc2ncnc3c(NC(=O)Nc4cc(C)cc(C)c4)cccc23)cc(OC)c1` stands 10100 nM; under `COc1cc(Nc2ncnc3c(NC(=O)Nc4ccc(C(F)(F)F)cc4)cccc23)cc(OC)c1`, 3920 nM; under `COc1cc(NC(=O)Nc2cccc3c(Nc4cc(OC)cc(OC)c4)ncnc23)cc(OC)c1`, 366 nM.
`COc1cc(Nc2ncnc3c(NC(=O)Nc4ccc(Cl)cc4)cccc23)cc(OC)c1` had a concentration for 50% growth inhibition (GI50) of 2490 nM.
The compound `COc1cc(Nc2ncnc3c(NC(=O)Nc4ccc(Cl)c(Cl)c4)cccc23)cc(OC)c1` returned a GI50 of 6230 nM.
`COc1cc(Nc2ncnc3c(NC(=O)Nc4ccc(C)cc4C)cccc23)cc(OC)c1` yielded a GI50 of 1290 nM.
Compound `COc1cc(Nc2ncnc3c(NC(=O)Nc4cccc(Cl)c4Cl)cccc23)cc(OC)c1` gave a GI50 of 63.2 nM. Against the preceding compound, the GI50 is about 20-fold lower.
Under `COc1cc(Nc2ncnc3c(NC(=O)Nc4cc(Cl)c(Cl)cc4Cl)cccc23)cc(OC)c1` stands 4890 nM; under `COc1cc(Nc2ncnc3c(NC(=O)c4ccc(CN(C)C)cc4)cccc23)cc(OC)c1`, 4370 nM; under `COc1cc(Nc2ncnc3c(NC(=O)Nc4cccc(C(F)(F)F)c4F)cccc23)cc(OC)c1`, 471 nM.
In turn, `COc1cc(Nc2ncnc3c(NC(=O)Nc4ccc(C(F)(F)F)cc4Cl)cccc23)cc(OC)c1` registered a 50% growth inhibitory concentration (GI50) of 1080 nM. Against the preceding compound, the GI50 is about 2.3-fold higher.
On to `COc1cc(Nc2ncnc3c(NC(=O)Nc4cccc(Oc5ccccc5)c4)cccc23)cc(OC)c1`, for which the 50% growth inhibitory concentration (GI50) came to 14000 nM.
Compound `COc1cc(Nc2ncnc3c(NC(=O)Nc4ccc(F)cc4F)cccc23)cc(OC)c1` showed a GI50 of 2460 nM. Compared with the last compound, the GI50 is about 5.7-fold lower.
For `COc1cc(Nc2ncnc3c(NC(=O)Nc4ccc(C)c(C)c4)cccc23)cc(OC)c1` the value was 8.8 nM; for `COc1cc(Nc2ncnc3c(NC(=O)Nc4cc(C(F)(F)F)cc(C(F)(F)F)c4)cccc23)cc(OC)c1`, 467 nM; for `COc1cc(CCc2cc(NC(=O)c3ccc(N4C[C@@H](C)N[C@@H](C)C4)cc3)n[nH]2)cc(OC)c1` [FEXAGRATINIB], 29.2 nM.
`CCN(CC)CCCCNc1ncc2cc(-c3cc(OC)cc(OC)c3)c(NC(=O)NC(C)(C)C)nc2n1` [PD-173074] displayed a GI50 of 15 nM.
